Key:
human cathepsin K = human cathepsin K (UniProt P43236); test: Cathepsin K Assay (hrbCat K); type: biochemical; conditions: Z-Leu-Arg-AMC substrate, pH 5.5, 15 min preincubation; read-out: hrbCat K (IP (nM))
Method in brief: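 Human cathepsin K (0.4 nM) was preincubated 15 min at room temperature with compound in 50 mM MES pH 5.5, 2.5 mM EDTA, 2.5 mM DTT and 10% DMSO. Inhibition was fitted to a dose-response model.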

human cathepsin F = target: T1, human cathepsin F (Homo sapiens, UniProt Q9UBX1); test: Cathepsin F assay (hCat F); type: biochemical; conditions: Z-Phe-Arg-AMC substrate, pH 5.5, 15 min preincubation; read-out: hCat F (IP (nM))
T1 sequence (Q9UBX1 271-484): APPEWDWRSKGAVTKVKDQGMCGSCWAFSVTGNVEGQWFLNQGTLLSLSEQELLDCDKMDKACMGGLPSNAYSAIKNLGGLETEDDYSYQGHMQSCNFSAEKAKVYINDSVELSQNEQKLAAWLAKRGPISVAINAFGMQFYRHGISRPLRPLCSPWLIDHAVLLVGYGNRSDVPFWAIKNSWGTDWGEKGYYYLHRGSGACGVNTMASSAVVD
Method in brief: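 Enzyme (10 nM) was preincubated 15 min at room temperature with compounds (1/3 DMSO dilution series, 500–0.025 μM) in 50 mM MES pH 5.5, 2.5 mM EDTA, 2.5 mM DTT, 10% DMSO. Z-Phe-Arg-AMC (8 μM) was added and AMC fluorescence (Ex 360/Em 460 nm) followed for 20 min. % inhibition was fitted to dose-response curves.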

Row | Compound | IC50 (human cathepsin K) [nM] | IC50 (human cathepsin F) [nM]
1 | N#CC1(NC(=O)[C@@H]2CCCC[C@H]2c2nc(-c3ccc(C(F)(F)F)nc3)sc2-c2ccc(N3CCS(=O)(=O)CC3)cc2)CC1 [Example 38, (1R,2R)-N-(1-cyanocyclopropyl)-2-(5-(4-(1,1-dioxidothiomorpho-lino)phenyl)-2-(6-(trifluoromethyl)pyridin-3-yl)thiazol-4-yl)cyclohexane-carboxamide] | 1.8 | 2060
2 | N#CC1(NC(=O)[C@@H]2CCCC[C@H]2c2nc(N3CCOCC3)sc2-c2ccc(N3CCS(=O)(=O)CC3)cc2)CC1 [Example 40, (1R,2R)-N-(1-cyanocyclopropyl)-2-(5-(4-(1,1-dioxidothiomorpho-lino)phenyl)-2-morpholinothiazol-4-yl)cyclohexane-carboxamide] | 1.8 | ≥ 10000
3 | CC(C)(O)c1ccc(-c2nc([C@@H]3CCCC[C@H]3C(=O)NC3(C#N)CC3)c(-c3ccc(N4CCS(=O)(=O)CC4)cc3)s2)cc1 [Example 43, (1R,2R)-N-(1-cyanocyclopropyl)-2-(5-(4-(1,1-dioxidothiomorpho-lino)phenyl)-2-(4-(2-hydroxypropan-2-yl)phenyl)thiazol-4-yl)cyclohexane-carboxamide] | 1.2 | 1110
4 | N#CC1(NC(=O)[C@@H]2C[C@H](F)CC[C@H]2c2nc(-c3ccc(F)cc3)sc2-c2ccc(N3CCS(=O)(=O)CC3)cc2)CC1 [Example 45, (1R,2R,5R)-N-(1-cyanocyclopropyl)-2-(5-(4-(1,1-dioxidothiomorpho-lino)phenyl)-2-(4-fluorophenyl)thiazol-4-yl)-5-fluorocyclohexane-carboxamide] | 1.5 | 197
5 | N#CC1(NC(=O)[C@@H]2C[C@@H](F)CC[C@H]2c2nc(-c3cccnc3)sc2-c2ccc(N3CCS(=O)(=O)CC3)cc2)CC1 [Example 46, (1R,2R,5S)-N-(1-cyanocyclopropyl)-2-(5-(4-(1,1-dioxidothiomorpho-lino)phenyl)-2-(pyridin-3-yl)thiazol-4-yl)-5-fluorocyclohexane-carboxamide] | 1.1 | 1980
6 | N#CC1(NC(=O)[C@@H]2CC(F)(F)CC[C@H]2c2nc(-c3cccnc3)sc2-c2ccc(N3CCS(=O)(=O)CC3)cc2)CC1 [Example 49, (1R,2R)-N-(1-cyanocyclopropyl)-2-(5-(4-(1,1-dioxidothiomorpho-lino)phenyl)-2-(pyridin-3-yl)thiazol-4-yl)-5,5-difluorocyclohexane-carboxamide] | 0.5 | 49
7 | Cn1cccc(-c2nc([C@@H]3CCCC[C@H]3C(=O)NC3(C#N)CC3)c(-c3ccc(N4CCS(=O)(=O)CC4)cc3)s2)c1=O [Example 50, (1R,2R)-N-(1-cyanocyclopropyl)-2-(5-(4-(1,1-dioxidothiomorpho-lino)phenyl)-2-(1-methyl-2-oxo-1,2-dihydropyridin-3-yl)thiazol-4-yl)cyclohexane-carboxamide] | 1.9 | 879
8 | COc1ccc(-c2nc([C@@H]3CCCC[C@H]3C(=O)NC3(C#N)CC3)c(-c3ccc(N4CCS(=O)(=O)CC4)cc3)s2)cc1 [Example 51, (1R,2R)-N-(1-cyanocyclopropyl)-2-(5-(4-(1,1-dioxidothiomorpho-lino)phenyl)-2-(4-methoxyphenyl)thi-azol-4-yl)cyclohexane-carboxamide] | 1.8 | 1110
9 | Cn1cc(-c2nc([C@@H]3CCCC[C@H]3C(=O)NC3(C#N)CC3)c(-c3ccc(N4CCS(=O)(=O)CC4)cc3)s2)ccc1=O [Example 53, (1R,2R)-N-(1-cyanocyclopropyl)-2-(5-(4-(1,1-dioxidothiomorpho-lino)phenyl)-2-(1-methyl-6-oxo-1,6-dihydropyridin-3-yl)thiazol-4-yl)cyclohexane-carboxamide] | 3.8 | 2770
10 | COc1ccccc1-c1nc([C@@H]2CCCC[C@H]2C(=O)NC2(C#N)CC2)c(-c2ccc(N3CCS(=O)(=O)CC3)cc2)s1 [Example 54, (1R,2R)-N-(1-cyanocyclopropyl)-2-(5-(4-(1,1-dioxidothiomorpho-lino)phenyl)-2-(2-methoxyphenyl)thi-azol-4-yl)cyclohexane-carboxamide] | 2.1 | 1000
11 | COc1cccc(-c2nc([C@@H]3CCCC[C@H]3C(=O)NC3(C#N)CC3)c(-c3ccc(N4CCS(=O)(=O)CC4)cc3)s2)c1 [Example 56, (1R,2R)-N-(1-cyanocyclopropyl)-2-(5-(4-(1,1-dioxidothiomorpho-lino)phenyl)-2-(3-methoxyphenyl)thi-azol-4-yl)cyclohexane-carboxamide] | 1.8 | 821
12 | N#CC1(NC(=O)[C@@H]2CCCC[C@H]2c2nc(-c3cc(F)cc(F)c3)sc2-c2ccc(N3CCS(=O)(=O)CC3)cc2)CC1 [Example 57, (1R,2R)-N-(1-cyanocyclopropyl)-2-(2-(3,5-difluorophenyl)-5-(4-(1,1-dioxidothiomorpho-lino)phenyl)thiazol-4-yl)cyclohexane-carboxamide] | 1.5 | 650
13 | N#CC1(NC(=O)[C@@H]2CCCC[C@H]2c2nc(-c3ccc(F)c(F)c3)sc2-c2ccc(N3CCS(=O)(=O)CC3)cc2)CC1 [Example 58, (1R,2R)-N-(1-cyanocyclopropyl)-2-(2-(3,4-difluorophenyl)-5-(4-(1,1-dioxidothiomorpho-lino)phenyl)thiazol-4-yl)cyclohexane-carboxamide] | 1.7 | 815
14 | COc1cnc(-c2nc([C@@H]3CCCC[C@H]3C(=O)NC3(C#N)CC3)c(-c3ccc(N4CCS(=O)(=O)CC4)cc3)s2)c(OC)c1 [Example 59, (1R,2R)-N-(1-cyanocyclopropyl)-2-(2-(3,5-dimethoxypyridin-2-yl)-5-(4-(1,1-dioxidothiomorpho-lino)phenyl)thiazol-4-yl)cyclohexane-carboxamide] | 45.1 | ≥ 10000
15 | COc1cnc(-c2nc([C@@H]3CCCC[C@H]3C(=O)NC3(C#N)CC3)c(-c3ccc(N4CCS(=O)(=O)CC4)cc3)s2)c(F)c1 [Example 60, (1R,2R)-N-(1-cyanocyclopropyl)-2-(5-(4-(1,1-dioxidothiomorpho-lino)phenyl)-2-(3-fluoro-5-methoxypyridin-2-yl)thiazol-4-yl)cyclohexane-carboxamide] | 5.1 | 7910
16 | N#Cc1cc(F)ccc1-c1nc([C@@H]2CCCC[C@H]2C(=O)NC2(C#N)CC2)c(-c2ccc(N3CCS(=O)(=O)CC3)cc2)s1 [Example 61, (1R,2R)-2-(2-(2-cyano-4-fluorophenyl)-5-(4-(1,1-dioxidothiomorpho-lino)phenyl)thiazol-4-yl)-N-(1-cyanocyclopropyl) cyclohexanecarbox-amide] | 5.9 | 7650

Now from value to molecule:

Row | IC50 (human cathepsin K) [nM] | IC50 (human cathepsin F) [nM] | Compound
17 | 1 | 1360 | N#CC1(NC(=O)[C@@H]2CCCC[C@H]2c2nc(-c3ccon3)sc2-c2ccc(N3CCS(=O)(=O)CC3)cc2)CC1 [Example 39, (1R,2R)-N-(1-cyanocyclopropyl)-2-(5-(4-(1,1-dioxidothiomorpho-lino)phenyl)-2-(isoxazol-3-yl)thiazol-4-yl)cyclohexane-carboxamide]
18 | 1.2 | 945 | N#CC1(NC(=O)[C@@H]2CCCC[C@H]2c2nc(-c3ccc(Cl)cn3)sc2-c2ccc(N3CCS(=O)(=O)CC3)cc2)CC1 [Example 41, (1R,2R)-2-(2-(5-chloropyridin-2-yl)-5-(4-(1,1-dioxidothiomorpho-lino)phenyl)thiazol-4-yl)-N-(1-cyanocyclopropyl) cyclohexanecarbox-amide]
19 | 0.7 | 790 | N#CC1(NC(=O)[C@@H]2CCCC[C@H]2c2nc(-c3cncc(F)c3)sc2-c2ccc(N3CCS(=O)(=O)CC3)cc2)CC1 [Example 44, (1R,2R)-N-(1-cyanocyclopropyl)-2-(5-(4-(1,1-dioxidothiomorpho-lino)phenyl)-2-(5-fluoropyridin-3-yl)thiazol-4-yl)cyclohexane-carboxamide]
20 | 1.3 | 1520 | N#CC1(NC(=O)[C@@H]2CCCC[C@H]2c2nc(-c3ccc(F)cn3)sc2-c2ccc(N3CCS(=O)(=O)CC3)cc2)CC1 [Example 47, (1R,2R)-N-(1-cyanocyclopropyl)-2-(5-(4-(1,1-dioxidothiomorpho-lino)phenyl)-2-(5-fluoropyridin-2-yl)thiazol-4-yl)cyclohexane-carboxamide]
21 | 0.8 | 650 | N#CC1(NC(=O)[C@@H]2CCCC[C@H]2c2nc(-c3cncc(Cl)c3)sc2-c2ccc(N3CCS(=O)(=O)CC3)cc2)CC1 [Example 48, (1R,2R)-2-(2-(5-chloropyridin-3-yl)-5-(4-(1,1-dioxidothiomorpho-lino)phenyl)thiazol-4-yl)-N-(1-cyanocyclopropyl) cyclohexanecarbox-amide]
22 | 2.5 | 1120 | N#CC1(NC(=O)[C@@H]2CCCC[C@H]2c2nc(-c3ccccc3F)sc2-c2ccc(N3CCS(=O)(=O)CC3)cc2)CC1 [Example 55, (1R,2R)-N-(1-cyanocyclopropyl)-2-(5-(4-(1,1-dioxidothiomorpho-lino)phenyl)-2-(2-fluorophenyl)thiazol-4-yl)cyclohexane-carboxamide]
23 | 2.1 | 1000 | N#CC1(NC(=O)[C@@H]2CCCC[C@H]2c2nc(-c3cccc(F)c3F)sc2-c2ccc(N3CCS(=O)(=O)CC3)cc2)CC1 [Example 62, (1R,2R)-N-(1-cyanocyclopropyl)-2-(2-(2,3-difluorophenyl)-5-(4-(1,1-dioxidothiomorpho-lino)phenyl)thiazol-4-yl)cyclohexane-carboxamide]

Source: patent US9573913B2, “Cathepsin cysteine protease inhibitors” (Merck Sharp & Dohme Corp., priority 2013, dated 2017)
